Test results as given in PubChem BioAssay (NCI).
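Abbreviation: GI50, concentration required for 50% inhibition of growth. TGI marks complete inhibition of growth.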

Columns and labels:
Test in all cases: NCI anticancer screen, dose series, 384-well format
[1] = system: 786-0 renal
[2] = system: A498 renal
[3] = system: A549 NSCLC
[4] = system: ACHN renal
[5] = system: BT-549 breast
[6] = system: CAKI-1 renal
[7] = system: CCRF-CEM leukemia
[8] = system: DU-145 prostate
[9] = system: HCT-116 colon
[10] = system: HCT-15 colon
[11] = system: HL-60(TB) leukemia
[12] = system: HOP-62 NSCLC
[13] = system: HS 578T breast
[14] = system: HT29 colon
[15] = system: KM12 colon
[16] = system: LOX IMVI melanoma
[17] = system: M14 melanoma
[18] = system: MALME-3M melanoma
[19] = system: MCF7 breast
[20] = system: MDA-MB-468 breast
[21] = system: MOLT-4 leukemia
[22] = system: NCI-H226 lung
[23] = system: NCI-H23 lung
[24] = system: NCI-H522 lung
[25] = system: NCI/ADR-RES ovarian
[26] = system: OVCAR-3 ovarian
[27] = system: OVCAR-8 ovarian
[28] = system: PC-3 prostate
[29] = system: RPMI-8226 leukemia
[30] = system: RXF 393 renal
[31] = system: SF-268 CNS
[32] = system: SF-295 CNS
[33] = system: SF-539 CNS
[34] = system: SK-OV-3 ovarian
[35] = system: SN12C renal
[36] = system: SNB-19 CNS
[37] = system: SNB-75 CNS
[38] = system: SW-620 colon
[39] = system: U251 glioblastoma
[40] = system: UACC-62 melanoma
[41] = system: UO-31 renal
[42] = system: COLO 205 colon
[43] = system: EKVX NSCLC
[44] = system: HCC-2998 colon
[45] = system: HOP-92 NSCLC
[46] = system: IGROV1 ovarian
[47] = system: K-562 leukemia
[48] = system: MDA-MB-231 breast
[49] = system: MDA-MB-435 melanoma
[50] = system: NCI-H322M lung
[51] = system: NCI-H460 NSCLC
[52] = system: OVCAR-4 ovarian
[53] = system: OVCAR-5 ovarian
[54] = system: SK-MEL-28 melanoma
[55] = system: SK-MEL-5 melanoma
[56] = system: T-47D breast
[57] = system: TK-10 renal
[58] = system: UACC-257 melanoma

O=C(CCBr)N1CCN(C(=O)CCBr)CC1
GI50 [1]: 33.1 µM | GI50 [2]: 70.1 µM | GI50 [3]: 57.6 µM | GI50 [4]: 24.6 µM | TGI [4]: 87.4 µM | GI50 [5]: 40 µM | GI50 [6]: 33.3 µM | GI50 [7]: 11.4 µM | TGI [7]: 24.2 µM | GI50 [8]: 21.6 µM | GI50 [9]: 26.5 µM | GI50 [10]: 40.8 µM | GI50 [11]: 2.06 µM | TGI [11]: 5.92 µM | GI50 [12]: 13.6 µM | TGI [12]: 42.3 µM | GI50 [13]: 22.5 µM | GI50 [14]: 91.5 µM | GI50 [15]: 88.1 µM | GI50 [16]: 39.9 µM | GI50 [17]: 25.8 µM | GI50 [18]: 98.8 µM | GI50 [19]: 30.9 µM | GI50 [20]: 9.42 µM | TGI [20]: 49 µM | GI50 [21]: 1.61 µM | TGI [21]: 3 µM | GI50 [22]: 56.3 µM | GI50 [23]: 34.7 µM | GI50 [24]: 32.7 µM | GI50 [25]: 52.2 µM | GI50 [26]: 41.5 µM | GI50 [27]: 37.2 µM | GI50 [28]: 82 µM | GI50 [29]: 17 µM | GI50 [30]: 44.4 µM | GI50 [31]: 13.7 µM | GI50 [32]: 21.8 µM | TGI [32]: 64.9 µM | GI50 [33]: 24 µM | TGI [33]: 99 µM | GI50 [34]: 45.2 µM | GI50 [35]: 18.3 µM | GI50 [36]: 63 µM | GI50 [37]: 20.9 µM | GI50 [38]: 87.6 µM | GI50 [39]: 24 µM | GI50 [40]: 15.1 µM | GI50 [41]: 74.1 µM

C[C@H](c1ccc(F)cc1CCCC(=O)O)N(c1cc(F)ccc1F)S(=O)(=O)c1ccc(Cl)cc1
GI50 [1]: 28.9 µM | TGI [1]: > 100 µM | GI50 [2]: 20.2 µM | TGI [2]: 69.3 µM | GI50 [3]: 16.1 µM | TGI [3]: 46.2 µM | GI50 [4]: 30.4 µM | TGI [4]: > 100 µM | GI50 [5]: 18.8 µM | TGI [5]: 42 µM | GI50 [6]: 45.9 µM | TGI [6]: > 100 µM | GI50 [7]: 12.3 µM | TGI [7]: 26.5 µM | GI50 [42]: 30.1 µM | TGI [42]: > 100 µM | GI50 [8]: 28.2 µM | TGI [8]: > 100 µM | GI50 [43]: 21.6 µM | TGI [43]: 63.1 µM | GI50 [44]: 1.41 µM | TGI [44]: 16.3 µM | GI50 [9]: 20.2 µM | TGI [9]: 43.8 µM | GI50 [10]: 22.4 µM | TGI [10]: 95.5 µM | GI50 [11]: 19.1 µM | TGI [11]: 33.6 µM | GI50 [12]: 16.4 µM | TGI [12]: 37.1 µM | GI50 [45]: 13.5 µM | TGI [45]: 44.6 µM | GI50 [13]: 12.2 µM | TGI [13]: 33.3 µM | GI50 [14]: 31.3 µM | TGI [14]: > 100 µM | GI50 [46]: 30.5 µM | TGI [46]: > 100 µM | GI50 [47]: 27.1 µM | TGI [47]: > 100 µM | GI50 [15]: 28.7 µM | TGI [15]: > 100 µM | GI50 [16]: 19 µM | TGI [16]: 45.6 µM | GI50 [17]: 21.4 µM | TGI [17]: 70.5 µM | GI50 [18]: 23.7 µM | TGI [18]: > 100 µM | GI50 [19]: 22.7 µM | TGI [19]: 88.9 µM | GI50 [48]: 34 µM | TGI [48]: > 100 µM | GI50 [49]: 24 µM | TGI [49]: 53.8 µM | GI50 [20]: 5.35 µM | TGI [20]: 30.3 µM | GI50 [21]: 11.7 µM | TGI [21]: 24.2 µM | GI50 [22]: 25.2 µM | TGI [22]: 76 µM | GI50 [23]: 14.9 µM | TGI [23]: 41.6 µM | GI50 [50]: 25.6 µM | TGI [50]: > 100 µM | GI50 [51]: 17.2 µM | TGI [51]: 33.8 µM | GI50 [24]: 27.9 µM | TGI [24]: 76.3 µM | GI50 [25]: 32 µM | TGI [25]: > 100 µM | GI50 [26]: 17.9 µM | TGI [26]: 38 µM | GI50 [52]: 26 µM | TGI [52]: > 100 µM | GI50 [53]: 38.5 µM | TGI [53]: > 100 µM | GI50 [27]: 32.1 µM | TGI [27]: > 100 µM | GI50 [28]: 22.7 µM | TGI [28]: 66.8 µM | GI50 [29]: 19.4 µM | TGI [29]: 36.6 µM | GI50 [30]: 27.9 µM | TGI [30]: > 100 µM | GI50 [31]: 14 µM | TGI [31]: 34.2 µM | GI50 [32]: 17.7 µM | TGI [32]: 49.7 µM | GI50 [33]: 23.8 µM | TGI [33]: 66.2 µM | GI50 [54]: 46 µM | TGI [54]: > 100 µM | GI50 [55]: 13.1 µM | TGI [55]: 29.7 µM | GI50 [34]: 32.8 µM | TGI [34]: > 100 µM | GI50 [35]: 28.8 µM | TGI [35]: > 100 µM | GI50 [36]: 35.9 µM | TGI [36]: > 100 µM | GI50 [37]: 26.2 µM | TGI [37]: > 100 µM | GI50 [38]: 32.8 µM | TGI [38]: > 100 µM | GI50 [56]: 2.26 µM | TGI [56]: 26.6 µM | GI50 [57]: 31.1 µM | TGI [57]: > 100 µM | GI50 [39]: 19.9 µM | TGI [39]: 49.4 µM | GI50 [58]: 13.6 µM | TGI [58]: 68.4 µM | GI50 [40]: 16.9 µM | TGI [40]: 40.4 µM | GI50 [41]: 15.7 µM | TGI [41]: 33 µM
